Measurements reported in patent publication US11180462B2, “Microbiocidal oxadiazole derivatives” (SYNGENTA PARTICIPATIONS AG, priority 2015, dated 2021).

Legend:
[1] = test system: Puccinia recondita f. Sp. Tritici; experiment: Fungicidal activity against Puccinia recondita f. sp. tritici / wheat / leaf disc preventative (brown rust); format: in vivo; conditions: foliar, 200 ppm in the applied formulation, wheat leaf segments, preventative, compared to untreated control leaf disks, read-out: disease control
How it was run: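 Preventative leaf-segment test, wheat cv. Kanzler on water agar. Spray compound at 200 ppm, inoculate with spores 1 day later; 19° C., 75% rh, 12/12 h light. Read-out: % disease control vs untreated, 7 to 9 days after application.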

[2] = test system: Puccinia recondita f. Sp. Tritici; experiment: Fungicidal activity against Puccinia recondita f. sp. tritici / wheat / leaf disc curative (brown rust); format: in vivo; conditions: foliar, 24 h, 200 ppm in the applied formulation, wheat leaf segments, curative (applied 1 day after inoculation), compared to untreated control leaf disks, read-out: disease control
How it was run: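 Curative test on wheat leaf segments (cv. Kanzler) on agar, inoculated with spore suspension and held dark at 19° C, 75% RH; formulated compound in water applied 1 day after inoculation. Incubated at 19° C, 75% RH, 12 h light/12 h dark; percent disease control versus untreated scored 6 to 8 days after application.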

Phakopsora Pachyrhizi = experiment: Fungicidal activity against Phakopsora pachyrhizi / soybean / leaf disc preventative (Asian soybean rust); format: in vivo; conditions: foliar, 200 ppm in the applied formulation, soybean leaf disks, compared to untreated control leaf disks, read-out: disease control
How it was run: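 Preventative soybean leaf-disc test: discs on water agar sprayed with diluted formulated compound, inoculated one day later with spores on the lower surface. Held 24–36 h dark at 20°C, 75% rh, then 12 h light/day; percent disease control versus untreated discs scored 12–14 days after application.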

[3] = test system: Glomerella lagenarium (Colletotrichum lagenarium); experiment: Fungicidal activity against Glomerella lagenarium (Colletotrichum lagenarium) liquid culture / cucumber / preventative (anthracnose); format: cell-based; conditions: Colletotrichum orbiculare; 20 ppm in the applied formulation; liquid culture (PDB), growth inhibition measured photometrically after 3 to 4 days; compared to untreated control; read-out: disease control
How it was run: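 Photometric read-out of fungal growth after 2–7 days, expressed as percent antifungal activity versus untreated check. Cryo-stored conidia in PDB; compound at 20 ppm; dark, 24 °C, 96% RH.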

CC(=O)ON(Cc1ccc(-c2noc(C(F)(F)F)n2)cc1)C(C)=O [Compound 1.776, (acetyl-[[4-[5-(trifluoromethyl)-1,2,4-oxadiazol-3-yl]phenyl]methyl]-amino] acetate]
≥ 80%: pest or weed control at 200 ppm [1] | pest or weed control at 200 ppm [2] | pest or weed control at 200 ppm (Phakopsora Pachyrhizi) | inhibition of growth at 20 ppm [3]

O=C(CC1CC1)N(O)Cc1ccc(-c2noc(C(F)(F)F)n2)cc1 [Compound 1.774, 2-cyclopropyl-N-hydroxy-N-[[4-[5-(trifluoromethyl)-1,2,4-oxadiazol-3-yl]phenyl]methyl]-acetamide]
≥ 80%: pest or weed control at 200 ppm [1] | pest or weed control at 200 ppm [2] | pest or weed control at 200 ppm (Phakopsora Pachyrhizi) | inhibition of growth at 20 ppm [3]

O=C(C1CCC1)N(Cc1ccc(-c2noc(C(F)(F)F)n2)cc1)C1CC1 [Compound 1.112, N-cyclopropyl-N-[[4-[5-(trifluoromethyl)-1,2.4-oxadiazol-3-yl]phenyl]methyl]-cyclobutane-carboxamide]
≥ 80%: pest or weed control at 200 ppm [1] | pest or weed control at 200 ppm [2] | pest or weed control at 200 ppm (Phakopsora Pachyrhizi) | inhibition of growth at 20 ppm [3]

CON(Cc1ccc(-c2noc(C(F)(F)F)n2)cc1)C(=O)C1CCCCC1 [Compound 1.16, N-methoxy-N-[[4-[5-(trifluoromethyl)-1,2,4-oxadiazol-3-yl]phenyl]methyl]-cyclohexane-carboxamide]
≥ 80%: pest or weed control at 200 ppm [1] | pest or weed control at 200 ppm [2] | pest or weed control at 200 ppm (Phakopsora Pachyrhizi) | inhibition of growth at 20 ppm [3]

CCN(Cc1ccc(-c2noc(C(F)(F)F)n2)cc1)C(=O)NC1CC1 [Compound 3.53, 3-cyclopropyl-1-ethyl-1-[[4-[5-(trifluoromethyl)-1,2,4-oxadiazol-3-yl]phenyl]methyl]urea]
≥ 80%: pest or weed control at 200 ppm [1] | pest or weed control at 200 ppm [2] | pest or weed control at 200 ppm (Phakopsora Pachyrhizi) | inhibition of growth at 20 ppm [3]

O=C(C1CCC1)N(CCO)Cc1ccc(-c2noc(C(F)(F)F)n2)cc1 [Compound 1.714, N-(2-hydroxyethyl)-N-[[4-[5-(trifluoromethyl)-1,2,4-oxadiazol-3-yl]phenyl]methyl]-cyclobutane-carboxamide]
≥ 80%: pest or weed control at 200 ppm [1] | pest or weed control at 200 ppm [2] | pest or weed control at 200 ppm (Phakopsora Pachyrhizi) | inhibition of growth at 20 ppm [3]

N#Cc1ccc(CC(=O)N(Cc2ccc(-c3noc(C(F)(F)F)n3)cc2)C2CC2)cc1 [Compound 1.130, 2-(4-cyanophenyl)-N-cyclopropyl-N-[[4-[5-(trifluoromethyl)-1,2,4-oxadiazol-3-yl]phenyl]methyl]-acetamide]
≥ 80%: pest or weed control at 200 ppm [1] | pest or weed control at 200 ppm [2] | pest or weed control at 200 ppm (Phakopsora Pachyrhizi) | inhibition of growth at 20 ppm [3]

COCCCC(=O)N(O)Cc1ccc(-c2noc(C(F)(F)F)n2)cc1 [Compound 1.769, N-hydroxy-4-methoxy-N-[[4-[5-(trifluoromethyl)-1,2,4-oxadiazol-3-yl]phenyl]methyl]-butanamide]
≥ 80%: pest or weed control at 200 ppm [1] | pest or weed control at 200 ppm [2] | pest or weed control at 200 ppm (Phakopsora Pachyrhizi) | inhibition of growth at 20 ppm [3]

CCON(Cc1ccc(-c2noc(C(F)(F)F)n2)cc1)C(=O)C1CC1(F)F (centres unmarked) [Compound 1.615, N-ethoxy-2,2-difluoro-N-[[4-[5-(trifluoromethyl)-1,2,4-oxadiazol-3-yl]phenyl]methyl]-cyclopropane-carboxamide]
≥ 80%: pest or weed control at 200 ppm [1] | pest or weed control at 200 ppm [2] | pest or weed control at 200 ppm (Phakopsora Pachyrhizi) | inhibition of growth at 20 ppm [3]

O=C(C1CCOC1)N(Cc1ccc(-c2noc(C(F)(F)F)n2)cc1)CC(F)(F)F (centres unmarked) [Compound 1.692, N-(2.2.2-trifluoroethyl)-N-[[4-[5-(trifluoromethyl)-1,2,4-oxadiazol-3-yl]phenyl]methyl]-tetrahydrofuran-3-carboxamide]
≥ 80%: pest or weed control at 200 ppm [1] | pest or weed control at 200 ppm [2] | pest or weed control at 200 ppm (Phakopsora Pachyrhizi) | inhibition of growth at 20 ppm [3]

N#CC1(C(=O)N(Cc2ccc(-c3noc(C(F)(F)F)n3)cc2)CC(F)(F)F)CC1 [Compound 1.702, 1-cyano-N-(2,2,2-trrfluoroethyl)-N-[[4-[5-(trifluoromethyl)-1,2,4-oxadiazol-3-yl]phenyl]methyl]-cyclopropane-carboxamide]
≥ 80%: pest or weed control at 200 ppm [1] | pest or weed control at 200 ppm [2] | pest or weed control at 200 ppm (Phakopsora Pachyrhizi) | inhibition of growth at 20 ppm [3]

CCC(C)N(Cc1ccc(-c2noc(C(F)(F)F)n2)cc1)C(=O)C1OCCO1 (centres unmarked) [Compound 1.403, N-sec-butyl-N-[[4-[5-(trifluoromethyl)-1,2,4-oxadiazol-3-yl]phenyl]methyl]-1,3-dioxolane-2-carboxamide]
≥ 80%: pest or weed control at 200 ppm [1] | pest or weed control at 200 ppm [2] | pest or weed control at 200 ppm (Phakopsora Pachyrhizi) | inhibition of growth at 20 ppm [3]

CCN(Cc1ccc(-c2noc(C(F)(F)F)n2)cc1)C(=O)C1CC1(F)F (centres unmarked) [Compound 1.504, N-ethyl-2,2-difluoro-N-[[4-[5-(trifluoromethyl)-1,2,4-oxadiazol-3-yl]phenyl]methyl]-cyclopropane-carboxamide]
≥ 80%: pest or weed control at 200 ppm [1] | pest or weed control at 200 ppm [2] | pest or weed control at 200 ppm (Phakopsora Pachyrhizi) | inhibition of growth at 20 ppm [3]

CCCC(=O)N(C)Cc1ccc(-c2noc(C(F)(F)F)n2)cc1 [Compound 1.524, N-methyl-N-[[4-[5-(trifluoromethyl)-1,2,4-oxadiazol-3-yl]phenyl]methyl]-butanamide]
≥ 80%: pest or weed control at 200 ppm [1] | pest or weed control at 200 ppm [2] | pest or weed control at 200 ppm (Phakopsora Pachyrhizi) | inhibition of growth at 20 ppm [3]

CCC(C)N(Cc1ccc(-c2noc(C(F)(F)F)n2)cc1)C(=O)C1(C)COC1 (centres unmarked) [Compound 1.395, 3-methyl-N-sec-butyl-N-[[4-[5-(trifluoromethyl)-1,2,4-oxadiazol-3-yl]phenyl]methyl]-oxetane-3-carboxamide]
≥ 80%: pest or weed control at 200 ppm [1] | pest or weed control at 200 ppm [2] | pest or weed control at 200 ppm (Phakopsora Pachyrhizi) | inhibition of growth at 20 ppm [3]

CN(Cc1ccc(-c2noc(C(F)(F)F)n2)cc1)C(=O)C(C)(C)O [Compound 1.781, 2-hydroxy-N,2-dimethyl-N-[[4-[5-(trifluoromethyl)-1,2,4-oxadiazol-3-yl]phenyl]methyl]-propanamide]
≥ 80%: pest or weed control at 200 ppm [1] | pest or weed control at 200 ppm [2] | pest or weed control at 200 ppm (Phakopsora Pachyrhizi) | inhibition of growth at 20 ppm [3]

O=C(C1CCSCC1)N(Cc1ccc(-c2noc(C(F)(F)F)n2)cc1)C1CC1 [Compound 1.123, N-cyclopropyl-N-[[4-[5-(trifluoromethyl)-1,2,4-oxadiazol-3-yl]phenyl]methyl]-tetrahydrothiopyran-4-carboxamide]
≥ 80%: pest or weed control at 200 ppm [1] | pest or weed control at 200 ppm [2] | pest or weed control at 200 ppm (Phakopsora Pachyrhizi) | inhibition of growth at 20 ppm [3]

C#CCN(Cc1ccc(-c2noc(C(F)(F)F)n2)cc1)C(=O)C(C)(C)C [Compound 1.182, 2,2-dimethyl-N-prop-2-ynyl-N-[[4-[5-(trifluoromethyl)-1,2,4-oxadiazol-3-yl]phenyl]methyl]-propanamide]
≥ 80%: pest or weed control at 200 ppm [1] | pest or weed control at 200 ppm [2] | pest or weed control at 200 ppm (Phakopsora Pachyrhizi) | inhibition of growth at 20 ppm [3]

O=C(OCCN(Cc1ccc(-c2noc(C(F)(F)F)n2)cc1)C(=O)C1CCCO1)C1CCCO1 (centres unmarked) [Compound 1.727, 2-[tetrahydrofuran-2-carbonyl-[[4-[5-(trifluoromethyl)-1,2,4-oxadiazol-3-yl]phenyl]methyl]-amino]ethyl tetrahydrofuran-2-carboxylate]
≥ 80%: pest or weed control at 200 ppm [1] | pest or weed control at 200 ppm [2] | pest or weed control at 200 ppm (Phakopsora Pachyrhizi) | inhibition of growth at 20 ppm [3]

CC(C)N(Cc1ccc(-c2noc(C(F)(F)F)n2)cc1)C(=O)C1(C)CC1 [Compound 1.677, N-isopropyl-1-methyl-N-[[4-[5-(trifluoromethyl)-1,2,4-oxadiazol-3-yl]phenyl]methyl]-cyclopropane-carboxamide]
≥ 80%: pest or weed control at 200 ppm [1] | pest or weed control at 200 ppm [2] | pest or weed control at 200 ppm (Phakopsora Pachyrhizi) | inhibition of growth at 20 ppm [3]
